The test system of assay [1] is HT29 cell line. In words: BrdU cell growth inhibition, HT29. Conditions: for activity at 0.05 µM / activity at 0.5 µM / activity at 5 µM: HT-29, read-out: HT-29 Growth, % of Control Mean, n = 3; for activity at 0.05 µM: 50 nM; for activity at 0.5 µM: 500 nM. Format: cell-based, human. On the procedure:
(§1) The GI50s for several of the compounds of the invention were assayed as described herein.
The HT29 cell line is a NCI standard human colon carcinoma cell line.
(§2) In the BrdU Assay for cell growth inhibition, quantitation of cell proliferation was based on the measurement of BrdU incorporation during DNA synthesis. The Cell Proliferation ELISA BrdU assay kit (colorimetric) was obtained from Roche Applied Science and performed as per vendor instructions.
(§3) The growth inhibition (GI) is determined from the formula GI=(T0−Tn×100/T0−CONn) where T0 is the BrdU growth of untreated cells at time “0”, Tn is the BrdU growth of treated cells at day “n” and CONn is the control BrdU growth of control cells at day “n”. The GI50 was extrapolated and the data plotted using XL-Fit 4.0 software.
(§4) For 96 well culture plate experiments, c-Src 3T3 medium was supplemented with 10 mM HEPES buffer. HT-29 cells were seeded in standard tissue culture 96-well plates and c-Src 3T3 cells were seeded in 96-well plates coated with Poly-D-lysine (BIOCOAT™). To increase CO2 diffusion, c-Src 3T3 96-well plates were incubated with their lids raised by ˜2 mm using sterile rubber caps.
(§5) Samples were reconstituted in DMSO at 20 mM and intermediate dilutions made using DMEM containing 10% FBS. […] Plates were assayed for BrdU and the data analyzed as above for GI50.
(§6) All compounds were initially prepared as 20 mM DMSO stock solutions and then diluted into buffer for the in vitro tumor growth assays. NG means no cell growth beyond the control and T means the number of cells in the drug treated wells was less than in the control (i.e. net cell loss).
Growth Inhibition. […] T1 values≤T0 values were designated as T, cytotoxicity.

Assay [2] has as its system c-Src 3T3 cells. In words: BrdU cell growth inhibition, c-Src 3T3. The format is cell-based, mouse. Conditions: for activity at 0.1 µM / activity at 1 µM / activity at 10 µM: NIH3T3, read-out: c-Src 3T3 Growth, % of Control Mean, n = 3; for activity at 0.1 µM: 100 nM; for GI50: c-Src 3T3 (c-Src527F/NIH3T3) cells. On the procedure: as §1
The cells were routinely cultured in DMEM supplemented with Fetal Bovine Serum (2.0% v/V), L-glutamine (2 mM) and Sodium Pyruvate (1 mM).
as §2, §3, §4, §5, §6

The mark [3] stands for this setting: Homo sapiens, HT-29, HT29 (Colon) cells, read-out: GI50.

Where two headings read alike, the source gives them in different places.

By GI50 is commonly meant the concentration at which growth is held to half of that of the control.

Take `O=C(Cc1ccc(-c2ccc(C(=O)O)cc2)nc1)NCc1cccc(F)c1` [KX1-323, 4-{5-[(3-Fluoro-benzylcarbamoyl)-methyl]-pyridin-2-yl}-benzoic acid]: in assay [1] (Homo sapiens), the activity at 0.05 µM was found to be 106%, the activity at 0.5 µM worked out at 107% and the activity at 5 µM worked out at 60.8%. Further, in assay [2] (Mus musculus), the activity at 0.1 µM worked out at 96.6%, the activity at 1 µM came out at 97.3% and the activity at 10 µM came out at 93.2%.
Take `CCOc1ccccc1-c1ccc(CC(=O)NCc2cccc(F)c2)cn1` [KX1-324, 2-[6-(2-Ethoxy-phenyl)-pyridin-3-yl]-N-(3-fluoro-benzyl)-acetamide]: in assay [1] (Homo sapiens), the activity at 0.05 µM is 91%, the activity at 0.5 µM was found to be 95.7% and the activity at 5 µM came out at 0%. Also, in assay [2] (Mus musculus), the activity at 0.1 µM was 96%, the activity at 1 µM amounted to 90% and the activity at 10 µM was less than 0%.
Turning to `CCOc1ccc(-c2ccc(CC(=O)NCc3cccc(F)c3)cn2)cc1` [KX1-325, 2-[6-(4-Ethoxy-phenyl)-pyridin-3-yl]-N-(3-fluoro-benzyl)-acetamide], the GI50 in assay [1] (setting [3]) was 215 nM. Moreover, in assay [1] (Homo sapiens), the activity at 0.05 µM is 85%, the activity at 0.5 µM is less than 0% and the activity at 5 µM is less than 0%. Moreover, in assay [2] (Mus musculus), the activity at 0.1 µM was determined as 97.6%, the activity at 1 µM came to 54.2% and the activity at 10 µM was less than 0%. Further, the GI50 in assay [2] (Mus musculus, read-out: GI50) was 207 nM.
Regarding `CS(=O)(=O)c1ccc(-c2ccc(CC(=O)NCc3cccc(F)c3)cn2)cc1` [KX1-326, N-(3-Fluoro-benzyl)-2-[6-(4-methanesulfonyl-phenyl)-pyridin-3-yl]-acetamide], in assay [1] (Homo sapiens), the activity at 0.05 µM amounted to 65.4%, the activity at 0.5 µM is 73.2% and the activity at 5 µM was determined as 43.7%. Besides, in assay [2] (Mus musculus), the activity at 0.1 µM was 92.2%, the activity at 1 µM turned out to be 87.3% and the activity at 10 µM stood at 55.7%.
Consider `O=C(Cc1ccc(-c2ccncc2)cc1)NCc1cccc(F)c1` [KX1-327], for which, in assay [1] (setting [3]), the concentration for 50% growth inhibition (GI50) was found to be 680 nM. Also, in assay [1] (Homo sapiens), the activity at 0.05 µM came out at 31.6%, the activity at 0.5 µM is less than 0% and the activity at 5 µM is less than 0%. In assay [2] (Mus musculus), the activity at 0.1 µM was 81.3%, the activity at 1 µM was less than 0% and the activity at 10 µM is less than 0%. In addition, in assay [2] (Mus musculus, read-out: GI50), the GI50 was greater than 200 nM.
On to `O=C(Cc1ccc(-c2ccccc2)c[n+]1[O-])NCc1cccc(F)c1` [KX1-329 N-oxide], for which the GI50 result in assay [1] (HT29 (Colon) cells) and in assay [2] was “inactive (c-Src 3T3); inactive (HT-29)” throughout.
As for `CCOc1ccc(-c2ccc(CC(=O)NCc3cccc(F)c3)nc2)cc1` [KX2-359], the GI50 in assay [1] (setting [3]) was determined as 45 nM. Also, in assay [1] (Homo sapiens), the activity at 0.05 µM was less than 0%, the activity at 0.5 µM was less than 0% and the activity at 5 µM is less than 0%. Also, in assay [2] (Mus musculus), the activity at 0.1 µM was less than 0%, the activity at 1 µM is less than 0% and the activity at 10 µM was less than 0%. Also, the concentration for 50% growth inhibition (GI50) in assay [2] (Mus musculus, read-out: GI50) is 34 nM.
With `CCOc1ccccc1-c1ccc(CC(=O)NCc2cccc(F)c2)nc1` [KX2-360], in assay [1] (Homo sapiens), the activity at 0.05 µM is 91%, the activity at 0.5 µM is less than 0% and the activity at 5 µM was less than 0%. In addition, in assay [2] (Mus musculus), the activity at 0.1 µM stood at 106%, the activity at 1 µM is less than 0% and the activity at 10 µM was less than 0%.
As for `O=C(Cc1ccc(-c2ccc(CN3CCOCC3)cc2)cn1)NCc1cccc(F)c1` [KX2-362], the GI50 in assay [1] (setting [3]) was determined as 56 nM. For the same molecule, in assay [1] (Homo sapiens), the activity at 0.05 µM was found to be 86%, the activity at 0.5 µM was less than 0% and the activity at 5 µM is less than 0%. Moreover, in assay [2] (Mus musculus), the activity at 0.1 µM came to 101%, the activity at 1 µM was less than 0% and the activity at 10 µM is less than 0%. In assay [2] (Mus musculus, read-out: GI50), the concentration for 50% growth inhibition (GI50) was found to be 56 nM.
Take `CC(C)COc1cc(F)cc(CNC(=O)Cc2ccc(-c3ccc(CN4CCOCC4)cc3)cn2)c1` [KX2-363]: in assay [1] (Homo sapiens), the activity at 0.05 µM amounted to 92%, the activity at 0.5 µM is 67% and the activity at 5 µM was less than 0%. In assay [2] (Mus musculus), the activity at 0.1 µM is 92%, the activity at 1 µM turned out to be 70% and the activity at 10 µM is 100%.
With `O=C(Cc1ccc(-c2ccc(CN3CCCCC3)cc2)cn1)NCc1cccc(F)c1` [KX2-364], in assay [1] (Homo sapiens), the activity at 0.05 µM was 105%, the activity at 0.5 µM turned out to be 80% and the activity at 5 µM is less than 0%. Also, in assay [2] (Mus musculus), the activity at 0.1 µM is 92%, the activity at 1 µM worked out at 81% and the activity at 10 µM is less than 0%.
For the molecule `CN1CCN(CCOc2ccc(-c3ccc(CC(=O)NCc4cccc(F)c4)nc3)cc2)CC1` [KX2-365], the concentration for 50% growth inhibition (GI50) in assay [1] (setting [3]) is 93 nM. Besides, in assay [1] (Homo sapiens), the activity at 0.05 µM came out at 88%, the activity at 0.5 µM was less than 0% and the activity at 5 µM is less than 0%. In assay [2] (Mus musculus), the activity at 0.1 µM is 88%, the activity at 1 µM was less than 0% and the activity at 10 µM is less than 0%. Also, the concentration for 50% growth inhibition (GI50) in assay [2] (Mus musculus, read-out: GI50) turned out to be 133 nM.
`CC(C)COc1cc(F)cc(CNC(=O)Cc2ccc(-c3ccc(CN4CCCCC4)cc3)cn2)c1` [KX2-366]: in assay [1] (Homo sapiens), the activity at 0.05 µM amounted to 89%, the activity at 0.5 µM worked out at 54% and the activity at 5 µM is less than 0%. In assay [2] (Mus musculus), the activity at 0.1 µM was determined as 103%, the activity at 1 µM worked out at 83% and the activity at 10 µM is less than 0%.
As to `CC(C)COc1cc(F)cc(CNC(=O)Cc2ccc(-c3ccc(OCCN4CCN(C)CC4)cc3)cn2)c1` [KX2-367], in assay [1] (Homo sapiens), the activity at 0.05 µM was 64%, the activity at 0.5 µM is 6% and the activity at 5 µM was less than 0%. Further, in assay [2] (Mus musculus), the activity at 0.1 µM stood at 102%, the activity at 1 µM was less than 0% and the activity at 10 µM is less than 0%.
Regarding `CCOc1ccc(-c2ccc(CC(=O)NCc3cc(F)cc(OCC(C)C)c3)nc2)cc1` [KX2-368], in assay [1] (Homo sapiens), the activity at 0.05 µM came to 107%, the activity at 0.5 µM turned out to be 70% and the activity at 5 µM was less than 0%. Moreover, in assay [2] (Mus musculus), the activity at 0.1 µM came to 99%, the activity at 1 µM was determined as 101% and the activity at 10 µM is 27%.
With `CCOc1ccccc1-c1ccc(CC(=O)NCc2cc(F)cc(OCC(C)C)c2)nc1` [KX2-369], in assay [1] (Homo sapiens), the activity at 0.05 µM came to 87%, the activity at 0.5 µM is 72% and the activity at 5 µM was less than 0%. Besides, in assay [2] (Mus musculus), the activity at 0.1 µM stood at 100%, the activity at 1 µM worked out at 101% and the activity at 10 µM was less than 0%.
In the case of `CC(C)COc1cc(F)cc(CNC(=O)Cc2ccc(-c3ccc(N4CCOCC4)cc3)cn2)c1` [KX2-370], in assay [1] (Homo sapiens), the activity at 0.05 µM stood at 112%, the activity at 0.5 µM is 93% and the activity at 5 µM was 81%. In assay [2] (Mus musculus), the activity at 0.1 µM was 104%, the activity at 1 µM came to 105% and the activity at 10 µM was 106%.
In the case of `CC(C)COc1cc(F)cc(CNC(=O)Cc2ccc(-c3ccc(N4CCCCC4)cc3)cn2)c1` [KX2-371], in assay [1] (Homo sapiens), the activity at 0.05 µM was 98%, the activity at 0.5 µM was found to be 33% and the activity at 5 µM was 16%. Further, in assay [2] (Mus musculus), the activity at 0.1 µM was 75%, the activity at 1 µM turned out to be 72% and the activity at 10 µM was 16%.
As to `O=C(Cc1ccc(-c2ccc(N3CCCCC3)cc2)cn1)NCc1cccc(F)c1` [KX2-372], the GI50 in assay [1] (setting [3]) was 67 nM. Further, in assay [1] (Homo sapiens), the activity at 0.05 µM was less than 0%, the activity at 0.5 µM is less than 0% and the activity at 5 µM was less than 0%. Also, in assay [2] (Mus musculus), the activity at 0.1 µM is less than 0%, the activity at 1 µM is less than 0% and the activity at 10 µM is less than 0%. The GI50 in assay [2] (Mus musculus, read-out: GI50) was determined as 58 nM.
With `CN1CCN(c2ccc(-c3ccc(CC(=O)NCc4cccc(F)c4)nc3)cc2)CC1` [KX2-373], the concentration for 50% growth inhibition (GI50) in assay [1] (setting [3]) was 639 nM. In addition, in assay [1] (Homo sapiens), the activity at 0.05 µM is 64%, the activity at 0.5 µM is less than 0% and the activity at 5 µM was less than 0%. In addition, in assay [2] (Mus musculus), the activity at 0.1 µM was 97%, the activity at 1 µM was less than 0% and the activity at 10 µM is less than 0%. In assay [2] (Mus musculus, read-out: GI50), the GI50 was determined as 96 nM.
Consider `O=C(Cc1ccc(-c2ccc(OCCCN3CCCCC3)cc2)cn1)NCc1cccc(F)c1` [KX2-374], for which, in assay [1] (Homo sapiens), the activity at 0.05 µM was found to be 74%, the activity at 0.5 µM came to 57% and the activity at 5 µM was less than 0%. For the same molecule, in assay [2] (Mus musculus), the activity at 0.1 µM came out at 110%, the activity at 1 µM turned out to be 84% and the activity at 10 µM was less than 0%.
